Some test systems named below: Escherichia coli W160-37; Bacillus subtilis 168; Micrococcus luteus; Saccharomyces cerevisiae; Staphylococcus aureus.
Common to all, as to test: ≥ marks a high value that may be exact or a test limit, other limits are often not marked, values filed in µg/mL are converted to µM
For assay [1], the system named is Staphylococcus aureus ATCC 25923.
Assay [2] concerns Escherichia coli DH5alpha.
The subject of assay [3] is Bacillus subtilis ATCC 23857.
Assay [4] deals with Pseudomonas aeruginosa ATCC 27853.
For assay [5], the system named is Klebsiella pneumoniae ATCC 700603.
The test system of assay [6] is Acinetobacter baumannii ATCC 19606.
The test system of assay [7] is Escherichia coli ATCC 25922.
In assay [8] the test system is Staphylococcus aureus NCTC 8325.
The subject of assay [9] is Pseudomonas aeruginosa ATCC 15692.
Assay [10] relates to Staphylococcus aureus ATCC 6538.
Assay [11] concerns Escherichia coli ATCC 2592.
Assay [12] concerns Pseudomonas aeruginosa ATCC 9027.
Assay [13] has as its system Candida albicans ATCC 36232.
The test system of assay [14] is Micrococcus luteus ATCC 9341.
The subject of assay [15] is Pseudomonas aeruginosa H1001.
The test system of assay [16] is Pseudomonas syringae pv. syringae EPS 94.
Assay [17] has as its system Xanthomonas arboricola pv. pruni CFBP 5563.
In assay [18] the test system is Xanthomonas fragariae Xf349-9A.
The subject of assay [19] is Pseudomonas syringae pv. actinidiae Psa3700.1.1.
In assay [20] the test system is Xanthomonas campestris pv. Vesicatoria 2133-2.
In assay [21] the test system is Erwinia amylovora PMV 6076.

≈ marks a conversion by molar mass, not a printed value. Where “and” joins values, the source holds several entries; their conditions need not be identical. Equal values may be shown once. Some results are limits rather than exact numbers.

The term MIC denotes the lowest concentration found to suppress growth. Read a low MIC as inhibition by little substance. On to `CC[C@H](C)[C@H](NC(=O)[C@H](CC(C)C)NC(=O)[C@H](C)NC(=O)[C@H](CC(C)C)NC(=O)[C@@H](N)Cc1ccccc1)C(=O)N[C@@H](CC(C)C)C(=O)N[C@@H](CCCN=C(N)N)C(=O)N[C@@H](CCCCN)C(=O)N[C@H](C(=O)N[C@H](C(=O)N[C@H](C(=O)N[C@@H](C)C(=O)N[C@@H](CC(C)C)C(N)=O)[C@@H](C)O)C(C)C)[C@@H](C)CC` [FLALILRKIVTAL], for which the MIC against Escherichia coli W160-37 was at least 40.8 µM.

Take `CC[C@H](C)[C@H](NC(=O)[C@H](CCCCN)NC(=O)[C@H](CCCCN)NC(=O)[C@@H](NC(=O)[C@@H](NC(=O)[C@H](CCCCN)NC(=O)[C@H](CCCCN)NC(=O)[C@@H](NC(=O)[C@@H](NC(=O)[C@H](CCCCN)NC(=O)[C@H](CCCCN)NC(=O)[C@@H](NC(=O)[C@@H](NC(=O)[C@H](CCCCN)NC(=O)[C@H](CCCCN)NC(=O)[C@@H](NC(=O)[C@@H](NC(=O)CN)[C@@H](C)CC)[C@@H](C)CC)[C@@H](C)CC)[C@@H](C)CC)[C@@H](C)CC)[C@@H](C)CC)[C@@H](C)CC)[C@@H](C)CC)C(N)=O` [GIIKKIIKKIIKKIIKKI]: the MIC came to 4 µM (≈ 8.47 µg/mL) in [1]; 2 µM (≈ 4.24 µg/mL) in assay [2]; 2 µM (≈ 4.24 µg/mL) in assay [3]; 4 µM (≈ 8.47 µg/mL) in [4]; 8 µM (≈ 16.9 µg/mL) in assay [5]; 0.5 µM (≈ 1.06 µg/mL) in the assay on Bacillus subtilis 168. In addition, the MIC in [6] is 4 µM (≈ 8.47 µg/mL); in assay [7], 8 µM (≈ 16.9 µg/mL).

As for `CC[C@H](C)[C@H](NC(=O)[C@H](C)NC(=O)[C@H](CCC(=O)O)NC(=O)[C@H](CC(C)C)NC(=O)CNC(=O)CNC(=O)[C@H](CCCCN)NC(=O)[C@H](C)NC(=O)[C@H](Cc1ccccc1)NC(=O)[C@H](CCCCN)NC(=O)[C@H](CCCCN)NC(=O)[C@H](CC(C)C)NC(=O)CNC(=O)CNC(=O)[C@H](CC(C)C)NC(=O)[C@@H](NC(=O)[C@@H](NC(=O)[C@H](CO)NC(=O)[C@H](Cc1c[nH]c2ccccc12)NC(=O)[C@@H](NC(=O)CN)C(C)C)[C@@H](C)O)C(C)C)C(=O)N[C@H](C(=O)N[C@@H](CC(N)=O)C(=O)N1CCC[C@H]1C(=O)N[C@@H](CCCCN)C(=O)O)C(C)C` [GVWSTVLGGLKKFAKGGLEAIVNPK], the MIC in assay [1] was 45.3 µM (≈ 116 µg/mL); against Micrococcus luteus it was 0.5 µM (≈ 1.29 µg/mL); in assay [7], 5.66 µM (≈ 14.5 µg/mL); in the assay with Saccharomyces cerevisiae, at least 32 µM; in assay [8], at least 100 µM; in [9] it was at least 32 µM.

`CC[C@H](C)[C@H](N)C(=O)N[C@@H](CC(C)C)C(=O)N1CCC[C@H]1C(=O)N[C@@H](CC(C)C)C(=O)N[C@@H](CCCCN)C(=O)N[C@@H](CC(C)C)C(=O)N1CCC[C@H]1C(=O)N[C@@H](Cc1c[nH]c2ccccc12)C(=O)N[C@@H](CC(C)C)C(=O)N1CCC[C@H]1C(=O)N[C@@H](CC(C)C)C(=O)N[C@@H](CCCN=C(N)N)C(=O)N[C@@H](CCCN=C(N)N)C(N)=O` [ILPLKLPWLPLRR]: the MIC is 12.4 µM (≈ 20 µg/mL) against Escherichia coli W160-37 and 6.19 µM (≈ 9.99 µg/mL) with Staphylococcus aureus.

`CC(C)C[C@H](NC(=O)[C@H](CS)NC(=O)[C@H](CCCCN)NC(=O)[C@H](C)NC(=O)[C@H](C)NC(=O)[C@H](CS)NC(=O)[C@H](C)NC(=O)[C@H](C)NC(=O)[C@@H](N)CCCCN)C(=O)N[C@@H](Cc1c[nH]c2ccccc12)C(=O)N[C@@H](CCCN=C(N)N)C(N)=O` [KAACAAKCLWR]: the MIC in assay [10] is 41 µM and 81.9 µM; in assay [11] it was at least 164 µM; in assay [12] it was 81.9 µM and 164 µM; in assay [13], at least 164 µM.

In the case of `CC(C)[C@H](NC(=O)[C@H](CCCCN)NC(=O)[C@H](Cc1ccccc1)NC(=O)[C@@H](NC(=O)[C@@H](NC(=O)[C@H](CCCCN)NC(=O)[C@@H](N)CCCCN)C(C)C)C(C)C)C(=O)N[C@@H](CCCCN)C(=O)N[C@@H](Cc1ccccc1)C(=O)N[C@@H](CCCCN)C(=O)N[C@@H](CCCCN)C(=O)N[C@@H](CCCCN)C(N)=O` [KKVVFKVKFKKK], the MIC in [10] is 2.08 µM (≈ 3.13 µg/mL); in assay [13], 2.08 µM and 1.47 µM and 4.15 µM; in [14], 2.08 µM (≈ 3.13 µg/mL).

Molecule `CC[C@H](C)[C@H](NC(=O)[C@H](C)NC(=O)[C@@H](N)CC(N)=O)C(=O)N[C@@H](CCCCN)C(=O)N[C@@H](CC(C)C)C(=O)N[C@@H](CC(C)C)C(=O)N[C@@H](CS)C(=O)N[C@@H](CCCN=C(N)N)C(=O)N[C@H](C(=O)N[C@@H](Cc1cnc[nH]1)C(=O)O)C(C)C` [NAIKLLCRVH] gave an MIC in assay [15] of at least 85.7 µM.

Consider `CC[C@H](C)[C@H](NC(=O)[C@H](Cc1c[nH]c2ccccc12)NC(=O)[C@H](CCCCN)NC(=O)[C@H](CC(C)C)NC(=O)[C@H](Cc1ccccc1)NC(=O)[C@H](CCCCN)NC(=O)[C@H](CC(C)C)NC(=O)[C@H](CC(C)C)NC(=O)[C@H](CCCCN)NC(=O)[C@@H]1CCCN1)C(=O)NCC(=O)O` [PKLLKFLKWIG], for which the values for the MIC in the assay with Escherichia coli W160-37 and against Staphylococcus aureus were 31 µM (≈ 41.6 µg/mL) and 8 µM (≈ 10.7 µg/mL), respectively.

Regarding `CC[C@H](C)[C@H](NC(=O)[C@H](CC(C)C)NC(=O)[C@H](CCCCN)NC(=O)[C@H](CO)NC(=O)[C@H](C)NC(=O)CNC(=O)[C@H](CCCCN)NC(=O)[C@H](CC(C)C)NC(=O)[C@H](C)NC(=O)[C@H](CCSC)NC(=O)[C@H](CCCCN)NC(=O)[C@H](C)NC(=O)[C@H](Cc1ccccc1)NC(=O)[C@@H](NC(=O)CNC(=O)[C@H](Cc1ccccc1)NC(=O)[C@H](CC(C)C)NC(=O)[C@@H](N)CO)[C@@H](C)O)C(=O)N1CCC[C@H]1C(=O)N[C@@H](Cc1cnc[nH]1)C(=O)N[C@@H](CC(C)C)C(=O)N[C@@H](CC(C)C)C(=O)N1CCC[C@H]1C(=O)N[C@@H](CO)C(=O)N[C@@H](CCCN=C(N)N)C(=O)N[C@@H](CCC(N)=O)C(=O)N[C@@H](CCC(N)=O)C(=O)O` [SLFGTFAKMALKGASKLIPHLLPSRQQ], the MIC was determined as 1 µM in assay [1]; 0.5 µM in the assay with Micrococcus luteus; 2.83 µM in assay [7]; 16 µM in the assay with Saccharomyces cerevisiae; 5.66 µM in assay [9].

Regarding `CSCC[C@H](NC(=O)CNC(=O)[C@@H](NC(=O)[C@H](CO)NC(=O)[C@H](Cc1ccccc1)NC(=O)[C@@H](NC(=O)[C@H](Cc1ccccc1)NC(=O)[C@H](Cc1ccc(O)cc1)NC(=O)[C@H](CO)NC(=O)[C@H](CCC(=O)O)NC(=O)[C@@H](N)[C@@H](C)O)C(C)C)C(C)C)C(N)=O` [TESYFVFSVGM], the MIC is at least 50 µM in assay [16]; 17.7 µM (≈ 22.4 µg/mL) in [17]; at least 50 µM in [18]; 17.7 µM (≈ 22.4 µg/mL) in [19]; at least 50 µM in assay [20]; at least 50 µM in assay [21].

Take `CC[C@H](C)[C@H](NC(=O)[C@H](CCCN=C(N)N)NC(=O)[C@H](CCCN=C(N)N)NC(=O)[C@@H]1CCCN1C(=O)[C@@H]1CCCN1C(=O)[C@H](CCCN=C(N)N)NC(=O)[C@@H]1CCCN1C(=O)[C@H](CCCN=C(N)N)NC(=O)[C@@H]1CCCN1C(=O)[C@H](CC(C)C)NC(=O)[C@H](Cc1ccc(O)cc1)NC(=O)[C@@H]1CCCN1C(=O)[C@@H]1CCCN1C(=O)[C@H](CCCCN)NC(=O)[C@@H]1CCCN1C(=O)[C@@H](N)C(C)C)C(=O)N[C@@H](Cc1ccc(O)cc1)C(=O)N[C@@H](CC(N)=O)C(=O)N[C@@H](CCCN=C(N)N)C(=O)NCC(=O)O` [VPKPPYLPRPRPPRRIYNRG]: in [15], the MIC was found to be 0.123 µM (≈ 0.3 µg/mL).

For the origin of these results see DBAASP.
